Laboratory results as given in article PMC12656566, “Toxicokinetic Characterization of MDM Hydantoin via Stable Metabolite DMH: Population Modeling for Predicting Dermal Formaldehyde Formation” (Toxics, 2025).
Where two headings read alike, the source gives them in different places.

Experiments:
[1] = Population toxicokinetic modeling of MDMH and DMH plasma data (IV and TD); format: in vivo; settings: population estimate, rats; for Vd / clearance: male, Sprague-Dawley, rat, plasma, other: intravenous and transdermal data pooled
Procedure: POP-TK modeling was performed to develop a compartment model describing the disposition of MDMH and DMH following different administration routes. Plasma concentration data from all studies were combined for model development.
The compartment model was designed to fit the absorption phase following TD application, disposition kinetics of MDMH and DMH following IV injection. The disposition phase of MDMH was described with a one-compartment model.
For transdermal application, MDMH applied to the skin undergoes simultaneous absorption and metabolic conversion to DMH and formaldehyde. This process was described by a first-order rate constant (ka,met) representing the combined absorption-metabolism kinetics. The parameter Fa,met represents the fraction of applied dose that penetrates the skin and undergoes metabolic conversion, accounting for incomplete absorption.
DMH formed in the skin compartment subsequently undergoes absorption into systemic circulation. This absorption was modeled using a first-order rate constant (ka,DMH) with three transit compartments to describe the delayed appearance of DMH in plasma.
The disposition of MDMH and DMH was assessed using a linear model with a central and one, two, or three peripheral compartments. The model incorporated both skin metabolism and systemic metabolism of MDMH to DMH. Systemic metabolism was described by the […], representing the fraction of eliminated MDMH that is converted to DMH in the central compartment. Molecular weight correction was applied to account for stoichiometric conversion relationships.
The final disposition and elimination compartment model was determined to use one central compartment for MDMH and one central and one peripheral compartment for DMH based on the objective function.
The differential equations for the amounts of MDMH in the central (XCentral,MDMH) compartments and DMH in the central (XCentral,DMH) and peripheral (XPeripheral,DMH) compartments were:(7) dXCentral,MDMH/dt=−CLMDMH·CCentral,MDMH (8) dXCentral,DMH/dt=−CLDMH·CCentral,DMH−CLDDMH·CCentral,DMH+CLDDMH·CPeripheral,DMH+ka,DMH·XTransit3,DMH+(MWDMH/MWMDMH)·CLMDMH·CCentral,MDMH (9) dXPeripheral,DMH/dt=+CLDDMH·CCentral,DMH−CLDDMH·CPeripheral,DMH
CCentral,MDMH and CCentral,DMH represent MDMH and DMH plasma concentrations in respective compartments and CPeripheral,DMH represent DMH concentration in peripheral compartment. CLMDMH and CLDMH were systemic clearance of MDMH and DMH and CLDDMH was distribution clearance.
The plasma concentrations of MDMH and DMH were simultaneously modeled and predicted using POP-TK modeling with the stochastic approximation expectation maximization (SAEM) algorithm in the parallelized Monolix® 2023R1 (Lixoft, Antony, Paris, France) and Berkeley Madonna version 8.3.11 (University of California at Berkeley, Berkeley, CA, USA). An importance sampling SAEM was used for population parameter estimation to describe the between-subject variability (BSV) for each parameter estimate.

[2] = Stability of MDMH and DMH in rat plasma and processed samples; format: in vitro ADME; settings: n = 5; for Processed sample stability: autosampler at 4 °C for 24 h; for Short-term stability / Freeze–thaw stability / Long-term stability: rat plasma; for Short-term stability: room temperature (25 °C) for 4 h; for Freeze–thaw stability: three freeze–thaw cycles; for Long-term stability: −20 °C for 4 weeks
Procedure: Short-term stability of MDMH and DMH in rat plasma was evaluated at room temperature for 4 h. Long-term stability was assessed following storage at −20 °C for 4 weeks. Freeze–thaw stability was determined after three freeze–thaw cycles. Additionally, processed sample stability was evaluated in the autosampler at 4 °C for 24 h. Stability was considered acceptable when the mean deviation from theoretical concentrations was within ±15%.
Stability studies were conducted using five replicates of low and high quality control samples under various analytical conditions, with results shown in Table 3. Short-term stability was evaluated at room temperature (25 °C) for 4 h, showing mean recoveries within acceptable limits for both analytes. Long-term stability was assessed following storage at −20 °C for 4 weeks, with recoveries remaining within ±15% of theoretical concentrations. Freeze–thaw stability was evaluated after three freeze–thaw cycles. Processed sample stability in the autosampler at 4 °C for 24 h was also within acceptable ranges.

| Processed sample stability ([2]; High QC) | Processed sample stability ([2]; Low QC) | Short-term stability ([2]; High QC) | Short-term stability ([2]; Low QC) | Freeze–thaw stability ([2]; High QC) | Freeze–thaw stability ([2]; Low QC) | Long-term stability ([2]; High QC) | Long-term stability ([2]; Low QC) | SMILES | Vd ([1]; Mean (BSV), read-out: Central volume of distribution for DMH (Vc,DMH)) | clearance ([1]; Mean (BSV), read-out: Clearance for DMH (CLDMH) (converted)) | Absorption rate constant for DMH into the central compartment from skin (ka,DMH) ([1]; Mean (BSV)) | Distribution clearance for DMH (CLDDMH) ([1]; Mean (BSV)) | Peripheral volume of distribution for DMH (Vp,DMH) ([1]; Mean (BSV)) | absorption rate constant for DMH (ka,DMH) [1] | Vd ([1]; Mean (BSV), read-out: Central volume of distribution for MDMH (Vc,MDMH)) | clearance ([1]; Mean (BSV), read-out: Clearance for MDMH (CLMDMH) (converted)) | Absorption-metabolism rate constant for MDMH in skin (Ka,met) ([1]; Mean (BSV)) | combined absorption-metabolism rate constant (ka,met) [1] |
| --- | --- | --- | --- | --- | --- | --- | --- | --- | --- | --- | --- | --- | --- | --- | --- | --- | --- | --- |
| 113.2 ± 1.5% | 90.9 ± 6.9% | 101.0 ± 1.9% | 102.0 ± 1.4% | 93.2 ± 5.8% | 89.3 ± 3.8% | 112.0 ± 3.2% | 106.2 ± 4.3% | CC1(C)NC(=O)NC1=O [DMH, 5,5-dimethylhydantoin] | 0.32 L | 3.17 mL/min | 8.03 (38.33) 1/h | 5.73 (71.8) L/h | 0.43 (35.86) L | 8.03 h⁻¹ | – | – | – | – |
| 112.0 ± 3.5% | 98.9 ± 4.7% | 99.7 ± 1.3% | 102.6 ± 1.5% | 94.0 ± 1.8% | 90.1 ± 4.1% | 109.0 ± 3.9% | 110.4 ± 1.1% | CC1(C)C(=O)NC(=O)N1CO [MDMH, 1-(Hydroxymethyl)-5,5-dimethylhydantoin] | – | – | – | – | – | – | 1.18 L | 2460 mL/min | 0.31 (6.44) 1/h | 0.31 h⁻¹ |
